In ChEMBL document CHEMBL3991601, “The target landscape of clinical kinase drugs” (Science, 2017) one finds Kd data, which are given here for 25 compounds.

For experiment [1], the target named is T1, Very long-chain specific acyl-CoA dehydrogenase, mitochondrial (Homo sapiens, UniProt P49748).
T1 sequence (P49748 whole entry): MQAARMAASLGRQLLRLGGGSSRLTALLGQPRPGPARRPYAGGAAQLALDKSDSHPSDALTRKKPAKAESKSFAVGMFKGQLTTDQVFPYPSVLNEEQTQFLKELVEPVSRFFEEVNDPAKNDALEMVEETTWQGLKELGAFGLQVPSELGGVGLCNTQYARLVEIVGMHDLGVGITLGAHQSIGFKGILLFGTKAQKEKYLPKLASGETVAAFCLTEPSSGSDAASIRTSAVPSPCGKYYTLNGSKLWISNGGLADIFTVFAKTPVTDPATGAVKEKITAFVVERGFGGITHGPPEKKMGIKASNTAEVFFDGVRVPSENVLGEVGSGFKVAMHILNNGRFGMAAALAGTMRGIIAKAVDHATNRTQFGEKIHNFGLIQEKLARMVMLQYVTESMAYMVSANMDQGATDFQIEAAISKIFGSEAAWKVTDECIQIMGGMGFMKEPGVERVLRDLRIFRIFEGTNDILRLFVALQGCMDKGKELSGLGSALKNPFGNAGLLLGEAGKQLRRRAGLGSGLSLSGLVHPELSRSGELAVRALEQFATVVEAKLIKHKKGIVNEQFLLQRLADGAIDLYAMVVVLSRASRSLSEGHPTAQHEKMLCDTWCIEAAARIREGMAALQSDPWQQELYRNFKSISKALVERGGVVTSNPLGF

In experiment [2] the target is Protein kinase C beta type (Homo sapiens, UniProt P05771).
Protein kinase C beta type, sequence (P05771 whole entry, the tested form may be a part): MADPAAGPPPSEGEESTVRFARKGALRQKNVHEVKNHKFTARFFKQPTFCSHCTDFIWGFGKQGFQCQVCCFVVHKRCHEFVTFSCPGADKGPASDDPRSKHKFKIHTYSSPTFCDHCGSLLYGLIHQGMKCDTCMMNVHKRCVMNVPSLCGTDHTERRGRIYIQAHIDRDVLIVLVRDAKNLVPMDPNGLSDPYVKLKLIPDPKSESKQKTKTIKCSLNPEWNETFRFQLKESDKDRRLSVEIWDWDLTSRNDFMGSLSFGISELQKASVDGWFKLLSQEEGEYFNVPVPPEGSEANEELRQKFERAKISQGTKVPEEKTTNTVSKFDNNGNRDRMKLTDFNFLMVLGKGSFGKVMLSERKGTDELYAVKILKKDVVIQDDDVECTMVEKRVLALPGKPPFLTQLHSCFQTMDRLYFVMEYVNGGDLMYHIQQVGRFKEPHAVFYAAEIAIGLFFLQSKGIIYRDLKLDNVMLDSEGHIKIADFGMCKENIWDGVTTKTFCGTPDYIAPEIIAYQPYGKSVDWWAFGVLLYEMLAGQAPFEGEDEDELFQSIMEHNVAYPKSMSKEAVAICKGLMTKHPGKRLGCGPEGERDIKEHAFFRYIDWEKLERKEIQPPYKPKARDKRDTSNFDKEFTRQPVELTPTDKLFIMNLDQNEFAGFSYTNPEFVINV
The next experiment concerns the target LIM domain kinase 1 (Homo sapiens, UniProt P53667).
For the next experiment, the target named is T2, Ephrin type-A receptor 1 (Homo sapiens, UniProt P21709).
T2 sequence (P21709 whole entry): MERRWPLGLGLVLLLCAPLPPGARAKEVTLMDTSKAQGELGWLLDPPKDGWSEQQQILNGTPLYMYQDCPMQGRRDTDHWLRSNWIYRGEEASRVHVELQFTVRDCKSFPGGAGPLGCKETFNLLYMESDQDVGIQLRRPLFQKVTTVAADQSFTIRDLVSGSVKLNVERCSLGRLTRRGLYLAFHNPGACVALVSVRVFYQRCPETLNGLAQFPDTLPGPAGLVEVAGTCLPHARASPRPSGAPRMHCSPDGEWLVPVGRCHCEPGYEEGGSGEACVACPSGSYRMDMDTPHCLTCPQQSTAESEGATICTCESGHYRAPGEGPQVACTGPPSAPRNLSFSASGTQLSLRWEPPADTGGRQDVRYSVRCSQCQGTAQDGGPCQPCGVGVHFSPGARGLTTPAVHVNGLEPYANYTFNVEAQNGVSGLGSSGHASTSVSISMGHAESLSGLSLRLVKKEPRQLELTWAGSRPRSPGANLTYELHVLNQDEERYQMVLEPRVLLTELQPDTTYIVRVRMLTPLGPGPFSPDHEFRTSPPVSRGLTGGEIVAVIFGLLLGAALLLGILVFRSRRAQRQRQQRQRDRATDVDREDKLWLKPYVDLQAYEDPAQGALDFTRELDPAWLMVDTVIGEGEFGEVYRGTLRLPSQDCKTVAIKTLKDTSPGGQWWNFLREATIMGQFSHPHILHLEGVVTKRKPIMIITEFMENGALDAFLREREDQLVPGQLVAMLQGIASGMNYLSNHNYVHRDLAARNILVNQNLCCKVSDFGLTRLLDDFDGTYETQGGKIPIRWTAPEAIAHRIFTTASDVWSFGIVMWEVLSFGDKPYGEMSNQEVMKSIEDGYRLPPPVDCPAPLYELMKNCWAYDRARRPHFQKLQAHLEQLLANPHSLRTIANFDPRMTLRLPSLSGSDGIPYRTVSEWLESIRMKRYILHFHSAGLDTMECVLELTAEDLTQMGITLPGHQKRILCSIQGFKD

Experiment [3] concerns the target T3, Serine/threonine-protein kinase TBK1 (Homo sapiens, UniProt Q9UHD2).
T3 sequence (Q9UHD2 whole entry): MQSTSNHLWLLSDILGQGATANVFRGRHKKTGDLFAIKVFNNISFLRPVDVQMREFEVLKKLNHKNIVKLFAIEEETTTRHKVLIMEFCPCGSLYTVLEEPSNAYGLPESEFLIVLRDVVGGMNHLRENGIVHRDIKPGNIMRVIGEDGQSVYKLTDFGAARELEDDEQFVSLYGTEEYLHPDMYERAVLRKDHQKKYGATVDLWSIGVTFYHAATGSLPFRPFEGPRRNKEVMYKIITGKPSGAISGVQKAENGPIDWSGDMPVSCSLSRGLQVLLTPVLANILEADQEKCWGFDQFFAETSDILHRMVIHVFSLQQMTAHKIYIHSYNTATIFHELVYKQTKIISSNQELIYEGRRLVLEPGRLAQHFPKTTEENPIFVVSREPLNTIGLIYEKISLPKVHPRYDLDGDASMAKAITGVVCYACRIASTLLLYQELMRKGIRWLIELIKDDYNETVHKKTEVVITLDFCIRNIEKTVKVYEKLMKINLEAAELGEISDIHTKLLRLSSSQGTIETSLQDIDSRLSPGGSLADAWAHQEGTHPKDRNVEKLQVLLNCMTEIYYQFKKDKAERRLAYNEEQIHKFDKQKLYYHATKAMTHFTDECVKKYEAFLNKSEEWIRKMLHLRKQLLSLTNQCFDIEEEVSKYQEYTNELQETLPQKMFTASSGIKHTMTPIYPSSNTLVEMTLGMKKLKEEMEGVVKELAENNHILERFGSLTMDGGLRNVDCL

Each structure is given as a SMILES string. Where a name gives a salt, the structure may show the parent alone. Active and inactive are the calls of the source. For most assays here, no stated cut-off is given here; in the data, actives have a measured Kd and inactives only a lower limit.

LIM domain kinase 1, sequence (P53667 whole entry, the tested form may be a part): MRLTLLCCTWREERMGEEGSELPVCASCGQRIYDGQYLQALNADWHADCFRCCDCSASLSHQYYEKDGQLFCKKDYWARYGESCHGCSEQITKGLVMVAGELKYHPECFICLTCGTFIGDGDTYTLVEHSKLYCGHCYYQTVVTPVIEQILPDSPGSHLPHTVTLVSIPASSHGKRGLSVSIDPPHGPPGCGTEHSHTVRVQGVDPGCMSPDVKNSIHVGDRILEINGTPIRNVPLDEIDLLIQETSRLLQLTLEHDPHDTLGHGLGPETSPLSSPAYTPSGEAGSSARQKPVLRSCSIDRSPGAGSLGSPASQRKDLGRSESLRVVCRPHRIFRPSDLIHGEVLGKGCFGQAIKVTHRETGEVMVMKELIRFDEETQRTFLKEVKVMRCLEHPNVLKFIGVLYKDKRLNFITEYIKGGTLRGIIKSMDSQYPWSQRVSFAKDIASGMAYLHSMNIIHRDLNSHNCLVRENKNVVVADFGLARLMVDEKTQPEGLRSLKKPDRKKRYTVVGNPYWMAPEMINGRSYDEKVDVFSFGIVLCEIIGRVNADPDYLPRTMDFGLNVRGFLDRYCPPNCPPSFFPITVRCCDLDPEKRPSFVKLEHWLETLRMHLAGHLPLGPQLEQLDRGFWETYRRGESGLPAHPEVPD

On to `CC(=O)c1cnc2ccc(-c3cc(Cl)c(O)c(Cl)c3)nc2c1N[C@H]1CC[C@H](CN(C)C)CC1`, for which the Kd was > 30 µM (inactive) in experiment [1], 0.233 µM (active) in experiment [2], > 30 µM (inactive) on LIM domain kinase 1 and 0.091 µM (active) on Ephrin type-A receptor 1.
For the compound `COc1cc(Nc2ncc3c(n2)-c2ccc(Cl)cc2C(c2c(F)cccc2OC)=NC3)ccc1C(=O)O` [ALISERTIB], the Kd (in experiment [1]; in experiment [2]; on Ephrin type-A receptor 1) was > 30 µM (inactive) in each case.
`Cc1csc(-c2nnc(Nc3ccc(Oc4ncccc4-c4ccnc(N)n4)cc3)c3ccccc23)c1` [AMG-900]: the Kd (in experiment [1]; in experiment [2]; on LIM domain kinase 1; in experiment [3]) was > 30 µM (inactive) in each case.
As to `O=C(Nc1c[nH]nc1-c1nc2cc(CN3CCOCC3)ccc2[nH]1)NC1CC1` [AT-9283], the figures for the Kd in experiment [1] and in experiment [2] were > 30 µM (inactive) and 3.38 µM (active), respectively.
Consider `CNC(=O)c1ccccc1Sc1ccc2c(/C=C/c3ccccn3)n[nH]c2c1` [AXITINIB], for which the Kd in experiment [1] and in experiment [2] was > 30 µM (inactive) in each case.
With `NC(=O)Nc1cc(-c2cccc(F)c2)sc1C(=O)N[C@H]1CCCNC1` [AZD-7762], the Kd (in experiment [1]; in experiment [2]; on LIM domain kinase 1; in experiment [3]) was > 30 µM (inactive) each time.
Take `Cc1cc(C(=O)NOCCO)c(Nc2ccc(I)cc2F)n(C)c1=O` [AZD-8330]: the Kd (in experiment [1]; in experiment [2]; on LIM domain kinase 1; in experiment [3]) was > 30 µM (inactive) each time.
Regarding `COc1c(OCCCN2CCOCC2)ccc2c1N=C(NC(=O)c1cnc(N)nc1)N1CCN=C21` [COPANLISIB], the Kd (in experiment [1]; in experiment [2]; at LIM domain kinase 1; in experiment [3]) was > 30 µM (inactive) in each case.
For the compound `CCS(=O)(=O)N1CCN(c2ccc(Nc3ncc(C(N)=O)c(NC4CC4)n3)cc2)CC1` [Cerdulatinib Hydrochloride], the Kd (in experiment [1]; in experiment [2]; on LIM domain kinase 1; at Ephrin type-A receptor 1) was > 30 µM (inactive) each time.
Take `Cn1cc(C2=C(c3cn(C4CCN(Cc5ccccn5)CC4)c4ccccc34)C(=O)NC2=O)c2ccccc21` [ENZASTAURIN]: the Kd in experiment [1] is > 30 µM (inactive).
Take `Cc1nc2cc(-n3ncc(C(=O)c4cc5ccccc5[nH]4)c3N)ccc2[nH]1` [FGFR INHIBITOR DEBIO 1347]: the Kd (in experiment [2]; at LIM domain kinase 1; in experiment [3]; on Ephrin type-A receptor 1) was > 30 µM (inactive) each time.
With `Cc1cccc(-c2nn3c(c2-c2ccnc4ccc(C(N)=O)cc24)CCC3)n1` [GALUNISERTIB], the Kd (in experiment [1]; in experiment [2]; at LIM domain kinase 1; in experiment [3]) was > 30 µM (inactive) each time.
As for `C[C@@H](Oc1cc(-n2cnc3ccc(CN4CCN(C)CC4)cc32)sc1C(N)=O)c1ccccc1C(F)(F)F` [GSK-461364], the Kd in experiment [1] and in experiment [2] was > 30 µM (inactive) throughout.
`O=C(Nc1cc(C(F)(F)F)cc(C(F)(F)F)c1)c1cc(Cl)ccc1O` [IMD-0354]: the Kd (in experiment [1]; in experiment [2]; in experiment [3]; on Ephrin type-A receptor 1) was > 30 µM (inactive) throughout.
Regarding `COc1ncc(-c2ccc3nccc(-c4ccnnc4)c3c2)cc1NS(=O)(=O)c1ccc(F)cc1F` [OMIPALISIB], the Kd (in experiment [1]; in experiment [2]; on LIM domain kinase 1; in experiment [3]) was > 30 µM (inactive) each time.
With `Cc1[nH]c(/C=C2\C(=O)Nc3ccccc32)c(C)c1CCC(=O)O` [ORANTINIB], the Kd in experiment [1] was > 30 µM (inactive); in experiment [2], > 30 µM (inactive); in experiment [3], 1.98 µM (active); on Ephrin type-A receptor 1, > 30 µM (inactive).
As to `NC(=O)c1c(OCc2c(F)cc(Br)cc2F)nsc1NC(=O)NCCCCN1CCCC1` [OSI-632], the Kd (in experiment [1]; in experiment [2]; on Ephrin type-A receptor 1) was > 30 µM (inactive) throughout.
As for `Cc1nc(Nc2n[nH]c3c2CN(C(=O)N[C@H](CN(C)C)c2ccccc2)C3(C)C)c2sccc2n1` [PF-03758309], the Kd in experiment [1] was > 30 µM (inactive); in experiment [2], 5.89 µM (active); at LIM domain kinase 1 it was > 30 µM (inactive); on Ephrin type-A receptor 1, > 30 µM (inactive).
`CC(=O)NCC(=O)N1[C@@H]2CC[C@H]1c1ccc(Nc3ncc(C(F)(F)F)c(NC4CCC4)n3)cc12` [PF-03814735]: the Kd (in experiment [1]; in experiment [2]; at Ephrin type-A receptor 1) was > 30 µM (inactive) each time.
Regarding `CNC(=O)c1cc(Oc2ccc(NC(=O)Nc3cc(C(C)(C)C)nn3-c3ccc4ncccc4c3)c(F)c2)ccn1` [REBASTINIB], the Kd in experiment [1] was > 30 µM (inactive); in experiment [2], > 30 µM (inactive); on LIM domain kinase 1, 0.535 µM (active); in experiment [3], > 30 µM (inactive).
For the compound `O=C(NOCCO)c1cc(CN2OCCCC2=O)c(F)c(F)c1Nc1ccc(I)cc1F` [RO-4987655], the Kd in experiment [1] and in experiment [2] was > 30 µM (inactive) in each case.
On to `N#CC[C@H](C1CCCC1)n1cc(-c2ncnc3[nH]ccc23)cn1` [RUXOLITINIB], for which the Kd in experiment [1] and in experiment [2] was > 30 µM (inactive) throughout.
Take `CN1CCN(CCOc2cc(OC3CCOCC3)c3c(Nc4c(Cl)ccc5c4OCO5)ncnc3c2)CC1` [SARACATINIB]: the Kd (in experiment [1]; in experiment [2]; at LIM domain kinase 1; in experiment [3]) was > 30 µM (inactive) throughout.
As for `O=C1NC(=O)[C@@H](c2cn3c4c(cccc24)CCC3)[C@@H]1c1c[nH]c2ccccc12` [TIVANTINIB], the Kd (in experiment [1]; in experiment [2]; on LIM domain kinase 1; in experiment [3]) was > 30 µM (inactive) each time.
For `Cn1ncc(Cl)c1-c1cc(C(=O)N[C@H](CN)Cc2ccc(F)c(F)c2)oc1Cl` [UPROSERTIB], the Kd (in experiment [1]; at LIM domain kinase 1; in experiment [3]; on Ephrin type-A receptor 1) was > 30 µM (inactive) throughout.
